Test results as given in the supplement of paper PMC10733146.

Columns and labels:
Experiment in all cases: viability relative to DMSO control (fraction); higher = less drug effect (more viable cells)
Conditions in all cases: 48 h
Obatoclax mesylate = compound: COC1=CC(c2cc3ccccc3[nH]2)=N/C1=C\c1[nH]c(C)cc1C [Obatoclax mesylate]
In short: (§1)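 Viability was measured as CellTiter-Glo luminescence relative to the median of 16 inner DMSO wells. Primary mononuclear tumour cells, fresh or cryopreserved, were Ficoll-isolated from blood or bone marrow or taken from processed lymph node. They were seeded at 4 × 10^4 cells per well into 384-well plates holding pre-plated compounds at five concentrations, one well each, and kept in RPMI-1640 with penicillin/streptomycin, L-glutamine and human serum at 37 °C and 5% CO2 for 48 h.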

Tozasertib = compound: Cc1cc(Nc2cc(N3CCN(C)CC3)nc(Sc3ccc(NC(=O)C4CC4)cc3)n2)n[nH]1 [Tozasertib]
In short: as §1

Ribociclib = compound: CN(C)C(=O)c1cc2cnc(Nc3ccc(N4CCNCC4)cn3)nc2n1C1CCCC1 [Ribociclib]
In short: as §1

Vorinostat = compound: O=C(CCCCCCC(=O)Nc1ccccc1)NO [Vorinostat]
In short: as §1

ERK5-IN-1 = compound: CCOc1cc(C(=O)N2CCC(N3CCN(C)CC3)CC2)ccc1Nc1ncc2c(n1)N(C1CCCC1)c1ccccc1C(=O)N2C [ERK5-IN-1]
In short: as §1

Carfilzomib = compound: CC(C)C[C@H](NC(=O)[C@H](CCc1ccccc1)NC(=O)CN1CCOCC1)C(=O)N[C@@H](Cc1ccccc1)C(=O)N[C@@H](CC(C)C)C(=O)[C@@]1(C)CO1 [Carfilzomib]
In short: as §1

Birinapant = compound: CC[C@H](NC(=O)[C@H](C)NC)C(=O)N1C[C@@H](O)C[C@H]1Cc1c(-c2[nH]c3cc(F)ccc3c2C[C@@H]2C[C@H](O)CN2C(=O)[C@H](CC)NC(=O)[C@H](C)NC)[nH]c2cc(F)ccc12 [Birinapant]
In short: as §1

Pralatrexate = compound: C#CCC(Cc1cnc2nc(N)nc(N)c2n1)c1ccc(C(=O)N[C@@H](CCC(=O)O)C(=O)O)cc1 [Pralatrexate]
In short: as §1

Vincristine = compound: CC[C@]1(O)C[C@H]2CN(CCc3c([nH]c4ccccc34)[C@@](C(=O)OC)(c3cc4c(cc3OC)N(C=O)[C@H]3[C@@](O)(C(=O)OC)[C@H](OC(C)=O)[C@]5(CC)C=CCN6CC[C@]43[C@@H]65)C2)C1 [Vincristine]
In short: as §1

Pacritinib = compound: C1=N/C2=N/c3ccc(OCCN4CCCC4)c(c3)COC/C=C/COCc3cccc(c3)C(=C1)N2 [Pacritinib]
In short: as §1

[1] = compound: OCc1ccc(-c2ccc(-c3ccc(CO)s3)o2)s1
In short: as §1

MLN-120B = compound: COc1c(Cl)cc2c([nH]c3cnccc32)c1NC(=O)c1cccnc1C [MLN-120B]
In short: as §1

AZD7762 = compound: NC(=O)Nc1cc(-c2cccc(F)c2)sc1C(=O)N[C@H]1CCCNC1 [AZD7762]
In short: as §1

Nilotinib = compound: Cc1cn(-c2cc(NC(=O)c3ccc(C)c(Nc4nccc(-c5cccnc5)n4)c3)cc(C(F)(F)F)c2)cn1 [Nilotinib]
In short: as §1

primary ALL patient cells (S048)
viability (Obatoclax mesylate; 0.024 µM): 1
viability (Obatoclax mesylate; 0.12 µM): 1.13
viability (Obatoclax mesylate; 0.6 µM): 1.18
viability (Obatoclax mesylate; 3 µM): 0.583
viability (Obatoclax mesylate; 15 µM): 0.0615
viability (Tozasertib; 0.024 µM): 0.802
viability (Tozasertib; 0.12 µM): 0.731
viability (Tozasertib; 0.6 µM): 0.633
viability (Tozasertib; 3 µM): 0.539
viability (Tozasertib; 15 µM): 0.376
viability (Ribociclib; 0.024 µM): 0.682
viability (Ribociclib; 0.12 µM): 0.676
viability (Ribociclib; 0.6 µM): 0.692
viability (Ribociclib; 3 µM): 0.681
viability (Ribociclib; 15 µM): 0.615
viability (Vorinostat; 0.016 µM): 0.927
viability (Vorinostat; 0.08 µM): 0.723
viability (Vorinostat; 0.4 µM): 0.261
viability (Vorinostat; 2 µM): 0.097
viability (Vorinostat; 10 µM): 0.0745
viability (ERK5-IN-1; 0.024 µM): 0.657
viability (ERK5-IN-1; 0.12 µM): 0.69
viability (ERK5-IN-1; 0.6 µM): 0.397
viability (ERK5-IN-1; 3 µM): 0.241
viability (ERK5-IN-1; 15 µM): 0.0525
viability (Carfilzomib; 0.00016 µM): 0.718
viability (Carfilzomib; 0.0008 µM): 0.0489
viability (Carfilzomib; 0.004 µM): 0.014
viability (Carfilzomib; 0.02 µM): 0.0161
viability (Carfilzomib; 0.1 µM): 0.0184
viability (Birinapant; 0.0008 µM): 0.705
viability (Birinapant; 0.004 µM): 0.698
viability (Birinapant; 0.02 µM): 0.683
viability (Birinapant; 0.1 µM): 0.68
viability (Birinapant; 0.5 µM): 0.685
viability (Pralatrexate; 0.024 µM): 0.993
viability (Pralatrexate; 0.12 µM): 0.895
viability (Pralatrexate; 0.6 µM): 0.868
viability (Pralatrexate; 3 µM): 0.872
viability (Pralatrexate; 15 µM): 0.844
viability (Vincristine; 0.016 µM): 0.293
viability (Vincristine; 0.08 µM): 0.151
viability (Vincristine; 0.4 µM): 0.0999
viability (Vincristine; 2 µM): 0.0818
viability (Vincristine; 10 µM): 0.0695
viability (Pacritinib; 0.024 µM): 0.907
viability (Pacritinib; 0.12 µM): 0.786
viability (Pacritinib; 0.6 µM): 0.603
viability (Pacritinib; 3 µM): 0.591
viability (Pacritinib; 15 µM): 0.0174
viability ([1]; 0.024 µM): 0.718
viability ([1]; 0.12 µM): 0.687
viability ([1]; 0.6 µM): 0.455
viability ([1]; 3 µM): 0.188
viability ([1]; 15 µM): 0.0399
viability (MLN-120B; 0.024 µM): 0.807
viability (MLN-120B; 0.12 µM): 0.755
viability (MLN-120B; 0.6 µM): 0.801
viability (MLN-120B; 3 µM): 0.716
viability (MLN-120B; 15 µM): 0.624
viability (AZD7762; 0.024 µM): 0.546
viability (AZD7762; 0.12 µM): 0.493
viability (AZD7762; 0.6 µM): 0.296
viability (AZD7762; 3 µM): 0.161
viability (AZD7762; 15 µM): 0.0819
viability (Nilotinib; 0.016 µM): 1.1
viability (Nilotinib; 0.08 µM): 1.2
viability (Nilotinib; 0.4 µM): 1.06
viability (Nilotinib; 2 µM): 1.25
viability (Nilotinib; 10 µM): 1.11

primary ALL patient cells (S088)
viability (Obatoclax mesylate; 0.024 µM): 0.977
viability (Obatoclax mesylate; 0.12 µM): 0.804
viability (Obatoclax mesylate; 0.6 µM): 0.582
viability (Obatoclax mesylate; 3 µM): 0.262
viability (Obatoclax mesylate; 15 µM): 0.0738
viability (Tozasertib; 0.024 µM): 0.727
viability (Tozasertib; 0.12 µM): 0.653
viability (Tozasertib; 0.6 µM): 0.501
viability (Tozasertib; 3 µM): 0.382
viability (Tozasertib; 15 µM): 0.286
viability (Ribociclib; 0.024 µM): 0.713
viability (Ribociclib; 0.12 µM): 0.679
viability (Ribociclib; 0.6 µM): 0.621
viability (Ribociclib; 3 µM): 0.487
viability (Ribociclib; 15 µM): 0.357
viability (Vorinostat; 0.016 µM): 0.991
viability (Vorinostat; 0.08 µM): 0.777
viability (Vorinostat; 0.4 µM): 0.366
viability (Vorinostat; 2 µM): 0.157
viability (Vorinostat; 10 µM): 0.109
viability (ERK5-IN-1; 0.024 µM): 0.841
viability (ERK5-IN-1; 0.12 µM): 0.851
viability (ERK5-IN-1; 0.6 µM): 0.472
viability (ERK5-IN-1; 3 µM): 0.39
viability (ERK5-IN-1; 15 µM): 0.114
viability (Carfilzomib; 0.00016 µM): 0.844
viability (Carfilzomib; 0.0008 µM): 0.348
viability (Carfilzomib; 0.004 µM): 0.0398
viability (Carfilzomib; 0.02 µM): 0.0238
viability (Carfilzomib; 0.1 µM): 0.0318
viability (Birinapant; 0.0008 µM): 0.577
viability (Birinapant; 0.004 µM): 0.477
viability (Birinapant; 0.02 µM): 0.379
viability (Birinapant; 0.1 µM): 0.316
viability (Birinapant; 0.5 µM): 0.229
viability (Pralatrexate; 0.024 µM): 1.07
viability (Pralatrexate; 0.12 µM): 0.937
viability (Pralatrexate; 0.6 µM): 0.927
viability (Pralatrexate; 3 µM): 0.991
viability (Pralatrexate; 15 µM): 0.917
viability (Vincristine; 0.016 µM): 0.689
viability (Vincristine; 0.08 µM): 0.494
viability (Vincristine; 0.4 µM): 0.335
viability (Vincristine; 2 µM): 0.302
viability (Vincristine; 10 µM): 0.256
viability (Pacritinib; 0.024 µM): 0.868
viability (Pacritinib; 0.12 µM): 0.843
viability (Pacritinib; 0.6 µM): 0.707
viability (Pacritinib; 3 µM): 0.287
viability (Pacritinib; 15 µM): 0.0205
viability ([1]; 0.024 µM): 0.359
viability ([1]; 0.12 µM): 0.306
viability ([1]; 0.6 µM): 0.205
viability ([1]; 3 µM): 0.128
viability ([1]; 15 µM): 0.0223
viability (MLN-120B; 0.024 µM): 0.199
viability (MLN-120B; 0.12 µM): 0.231
viability (MLN-120B; 0.6 µM): 0.233
viability (MLN-120B; 3 µM): 0.248
viability (MLN-120B; 15 µM): 0.24
viability (AZD7762; 0.024 µM): 0.488
viability (AZD7762; 0.12 µM): 0.38
viability (AZD7762; 0.6 µM): 0.256
viability (AZD7762; 3 µM): 0.227
viability (AZD7762; 15 µM): 0.189
viability (Nilotinib; 0.016 µM): 1.16
viability (Nilotinib; 0.08 µM): 1.16
viability (Nilotinib; 0.4 µM): 1.14
viability (Nilotinib; 2 µM): 1.22
viability (Nilotinib; 10 µM): 1.26

primary AML patient cells (S002)
viability (Obatoclax mesylate; 0.024 µM): 0.904
viability (Obatoclax mesylate; 0.12 µM): 0.841
viability (Obatoclax mesylate; 0.6 µM): 0.497
viability (Obatoclax mesylate; 3 µM): 0.322
viability (Obatoclax mesylate; 15 µM): 0.142
viability (Tozasertib; 0.024 µM): 1.09
viability (Tozasertib; 0.12 µM): 0.779
viability (Tozasertib; 0.6 µM): 0.738
viability (Tozasertib; 3 µM): 0.647
viability (Tozasertib; 15 µM): 0.474
viability (Ribociclib; 0.024 µM): 0.981
viability (Ribociclib; 0.12 µM): 1.1
viability (Ribociclib; 0.6 µM): 1.03
viability (Ribociclib; 3 µM): 1.06
viability (Ribociclib; 15 µM): 0.736
viability (Vorinostat; 0.016 µM): 1.08
viability (Vorinostat; 0.08 µM): 0.947
viability (Vorinostat; 0.4 µM): 0.663
viability (Vorinostat; 2 µM): 0.291
viability (Vorinostat; 10 µM): 0.24
viability (ERK5-IN-1; 0.024 µM): 1.19
viability (ERK5-IN-1; 0.12 µM): 1.07
viability (ERK5-IN-1; 0.6 µM): 0.733
viability (ERK5-IN-1; 3 µM): 0.421
viability (ERK5-IN-1; 15 µM): 0.276
viability (Carfilzomib; 0.00016 µM): 0.941
viability (Carfilzomib; 0.0008 µM): 0.633
viability (Carfilzomib; 0.004 µM): 0.195
viability (Carfilzomib; 0.02 µM): 0.0988
viability (Carfilzomib; 0.1 µM): 0.0663
viability (Birinapant; 0.0008 µM): 0.8
viability (Birinapant; 0.004 µM): 0.783
viability (Birinapant; 0.02 µM): 0.66
viability (Birinapant; 0.1 µM): 0.478
viability (Birinapant; 0.5 µM): 0.322
viability (Pralatrexate; 0.024 µM): 1.02
viability (Pralatrexate; 0.12 µM): 0.828
viability (Pralatrexate; 0.6 µM): 0.79
viability (Pralatrexate; 3 µM): 1.07
viability (Pralatrexate; 15 µM): 0.928
viability (Vincristine; 0.016 µM): 1.11
viability (Vincristine; 0.08 µM): 1.18
viability (Vincristine; 0.4 µM): 1.14
viability (Vincristine; 2 µM): 0.99
viability (Vincristine; 10 µM): 0.961
viability (Pacritinib; 0.024 µM): 0.955
viability (Pacritinib; 0.12 µM): 0.884
viability (Pacritinib; 0.6 µM): 0.814
viability (Pacritinib; 3 µM): 0.421
viability (Pacritinib; 15 µM): 0.274
viability ([1]; 0.024 µM): 0.897
viability ([1]; 0.12 µM): 0.665
viability ([1]; 0.6 µM): 0.411
viability ([1]; 3 µM): 0.283
viability ([1]; 15 µM): 0.183
viability (MLN-120B; 0.024 µM): 0.876
viability (MLN-120B; 0.12 µM): 0.994
viability (MLN-120B; 0.6 µM): 0.805
viability (MLN-120B; 3 µM): 0.811
viability (MLN-120B; 15 µM): 0.619
viability (AZD7762; 0.024 µM): 0.79
viability (AZD7762; 0.12 µM): 0.964
viability (AZD7762; 0.6 µM): 0.647
viability (AZD7762; 3 µM): 0.526
viability (AZD7762; 15 µM): 0.38
viability (Nilotinib; 0.016 µM): 1.1
viability (Nilotinib; 0.08 µM): 1.24
viability (Nilotinib; 0.4 µM): 1.18
viability (Nilotinib; 2 µM): 1.23
viability (Nilotinib; 10 µM): 1.31
